The record followed here is publication PMC4836799, “Experimental and Theoretical Evaluation of the Ethynyl Moiety as a Halogen Bioisostere” (ACS Chemical Biology, 2015).

Values joined by “and” are separate entries in the source; they are usually repeats but may differ in a detail not shown here. Equal values may be shown once.

Assay [1] has as its target T1, T-p53C-Y220C (Homo sapiens, UniProt P04637, M133L/N239Y/N268D/V203A/Y220C).
T1 construct: made in house
Kind of assay: Differential scanning fluorimetry (DSF). The assay is classed as binding. The settings on record: 10 μM protein. The method, then:
The effect of compounds on the melting temperature of T-p53C-Y220C were monitored using SYPRO Orange (Invitrogen, USA) as a fluorescent probe, which quantitatively binds to hydrophobic protein patches exposed upon thermal denaturation. Real-time melt analysis was performed using a Corbett Rotor-Gene 6000 real-time qPCR thermocycler. Excitation and emission filters were set to 460 and 510 nm, respectively. Heating from 28 to 60 °C, a constant heating rate of 270 K/h was applied. The protein (final concentration of 10 μM) was briefly mixed with SYPRO orange (10x) in buffer (25 mM KPi pH 7.2, 150 mM NaCl, 1 mM TCEP), and compound (5 mM) dissolved in DMSO was added to give a final compound concentration of 250 μM in 5% (v/v) DMSO. The melting temperature (Tm) of the protein (10 μM) in the presence of compounds was determined from the inflection point of the melting curve. Melting temperatures were compared with control samples without compound (yielding ΔTm DSF). All samples were measured in triplicate.
In general terms: Differential scanning fluorimetry follows unfolding on heating by fluorescence.

In assay [2] the target is T2, p53-Y220C DNA-binding domain (Homo sapiens, UniProt P04637, M133L/N239Y/N268D/V203A/Y220C).
T2 construct: made in house
Briefly: Competition ITC with PK5174 (1) as coupling ligand. Here is the method: We assessed the binding of 3 to the stabilized DNA-binding domain of the p53 mutant Y220C (residues 94–312) using an array of biophysical techniques. […] Because the competition titration could not be performed at a c-value of 2 or higher, it was not possible to reliably decompose ΔG into ΔH and ΔS.[25]
All ITC experiments were conducted using a Microcal iTC200 calorimeter as previously described.[14] Briefly, protein and compounds were dissolved in 25 mM KPi, pH 7.2, 150 mM NaCl, 1 mM TCEP in 5% (v/v) DMSO. The cell unit contained 80 μM protein, and 2 mM compound was used for the syringe. The ITC competition experiment was conducted using 500 μM of compound 3 and 50 μM protein for the cell sample and 2 mM of compound 1 in the syringe. The actual and apparent binding constants for 1 were calculated with MicroCal Origin software using a standard one-site model. The binding constant of 3 was then calculated using an equation for ITC displacement titrations described by Zhang and Zhang[24] [drawing 2]

Take `C#Cc1cc(C#CCOc2ccccc2)cc(CN2CCC(N(CC)CC)CC2)c1O` [PK5211, 2-((4-(diethylamino)piperidin-1-yl)methyl)-6-ethynyl-4-(3-phenoxyprop-1-ynyl)phenol]: the “thermal stabilization of the mutant protein (Tm)” value in assay [1] is given as “concentration-dependent thermal stabilization”; in assay [1] (listed as 3) it was “concentration-dependent increase of the protein melting point”. For the same molecule, the dissociation constant (Kd) in assay [2] (competition with PK5174 (1), 500 μM compound 3, equation of Zhang and Zhang, read-out: KD determined indirectly by competition ITC) is ~270 µM and 271 µM. The loss in affinity entry in assay [2] (ethynyl compound 3 versus iodo compound 2) is “approximately 13 fold”.

The Kd is a measure of binding affinity in units of concentration.
